Assay results from ChEMBL document CHEMBL1201862, “PubChem BioAssay data set” (2004).
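Results reflect a 48-hour exposure of cells in 96-well plates to compound at five concentrations. The concentration for 50% growth inhibition is given as GI50.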 The source made the active and inactive calls. Cut-off read from the data, not from the text of the source: active = GI50 up to about 1.1 µM and inactive = higher.

Experiments:
Assay in all cases: inhibition of tumour cell growth, NCI panel, 48 h
[1] = system: 786-0
[2] = system: A498
[3] = system: A549
[4] = system: ACHN
[5] = system: BT-549
[6] = system: CAKI-1
[7] = system: CCRF-CEM
[8] = system: COLO 205
[9] = system: DU-145
[10] = system: EKVX
[11] = system: HCC 2998
[12] = system: HCT-116
[13] = system: HCT-15
[14] = system: HOP-62
[15] = system: HT-29
[16] = system: Hs-578T
[17] = system: IGROV-1
[18] = system: K562
[19] = system: KM12
[20] = system: LOX IMVI
[21] = system: M14
[22] = system: MCF7
[23] = system: MDA-MB-231
[24] = system: MDA-MB-435
[25] = system: MDA-N
[26] = system: MOLT-4
[27] = system: Malme-3M
[28] = system: NCI-H23
[29] = system: NCI-H460
[30] = system: NCI-H522
[31] = system: NCI/ADR-RES
[32] = system: OVCAR-3
[33] = system: OVCAR-4
[34] = system: OVCAR-5
[35] = system: OVCAR-8
[36] = system: PC-3
[37] = system: RPMI-8226
[38] = system: RXF 393
[39] = system: SF-268
[40] = system: SF-295
[41] = system: SF-539
[42] = system: SK-MEL-28
[43] = system: SK-MEL-2
[44] = system: SK-MEL-5
[45] = system: SK-OV-3
[46] = system: SN12C
[47] = system: SNB-19
[48] = system: SR
[49] = system: SW-620
[50] = system: T47D
[51] = system: TK-10
[52] = system: U-251
[53] = system: UACC-257
[54] = system: UACC-62
[55] = system: UO-31
[56] = system: HL-60
[57] = system: HOP-92
[58] = system: NCI-H226
[59] = system: SNB-75

Measured: GI50

COC1=C(OC)C(=O)C(Cc2c(C)nc3sccn23)=C(C)C1=O
16.5 µM: [13]
inactive: [1] 19.1 µM | [2] 14.9 µM | [3] 11 µM | [4] 14.9 µM | [5] 16.1 µM | [6] 17.9 µM | [7] 3.56 µM | [8] 12.6 µM | [9] 18.1 µM | [10] 14.1 µM | [11] 20.9 µM | [12] 19.3 µM | [14] 17.5 µM | [15] 16.4 µM | [16] 19.3 µM | [17] 22.4 µM | [18] 18.7 µM | [19] 15.2 µM | [20] 11.7 µM | [21] 17 µM | [22] 20.1 µM | [23] 13.1 µM | [24] 13.6 µM | [25] 12.7 µM | [26] 2.01 µM | [27] 10.9 µM | [28] 10.9 µM | [29] 20 µM | [30] 6.64 µM | [31] 14.4 µM | [32] 15 µM | [33] 2.92 µM | [34] 16.8 µM | [35] 14.9 µM | [36] 16.3 µM | [37] 2.48 µM | [38] 22.8 µM | [39] 18.8 µM | [40] 15 µM | [41] 16.5 µM | [42] 11 µM | [43] 16.6 µM | [44] 4.68 µM | [45] 13.7 µM | [46] 15.8 µM | [47] 16 µM | [48] 14.5 µM | [49] 14.8 µM | [50] 18.2 µM | [51] 16.4 µM | [52] 15.6 µM | [53] 5.65 µM | [54] 10.6 µM | [55] 13.6 µM

CC(=O)c1c(O)cc(O)c(-c2c(C)cc(O)c3c2C(=O)c2cccc(O)c2C3=O)c1O
14.1 µM: [13]
inactive: [1] 17.1 µM | [2] 15.6 µM | [3] 14.6 µM | [4] 12.9 µM | [5] 17.5 µM | [9] 16.3 µM | [10] 16.1 µM | [12] 15.4 µM | [56] 23.2 µM | [14] 14.9 µM | [57] 11.8 µM | [15] 17.1 µM | [16] 7.48 µM | [17] 11.6 µM | [18] 19.4 µM | [19] 16.2 µM | [20] 12.8 µM | [21] 20.3 µM | [22] 14.8 µM | [23] 25.1 µM | [24] 16.7 µM | [25] 16 µM | [26] 10.8 µM | [27] 11.9 µM | [58] 18.3 µM | [29] 15 µM | [30] 10 µM | [31] 15.8 µM | [32] 17.6 µM | [33] 10.8 µM | [34] 17.3 µM | [35] 14.7 µM | [36] 11 µM | [37] 7.76 µM | [39] 15.1 µM | [40] 13.1 µM | [41] 15.3 µM | [42] 20.7 µM | [43] 15.9 µM | [45] 13.1 µM | [46] 19.1 µM | [47] 21 µM | [59] 15.2 µM | [48] 16.3 µM | [49] 18.7 µM | [50] 4.95 µM | [51] 15.8 µM | [52] 14 µM | [53] 19.9 µM | [54] 14.5 µM | [55] 14.5 µM
